Among the data in patent US8455648B2, “1-(7-(hexahydropyrrolo [3,4-c] pyrrol-2 (1H)-yl) quinolin-4-yl) -3- (pyrazin-2-yl) urea derivatives and related compounds as glycogen synthase kinase 3 (GSK-3)” (Abbott GmbH & Co. KG, priority 2008, dated 2013) are IC50 values, retold here.

This test has as its target T1, human Glycogen Synthase Kinase-3 beta (hGSK-3β) (Homo sapiens, UniProt P49841).
T1 construct: purchased Upstate cell signaling solutions
Put plainly: Biochemical hGSK-3beta assay (33P-ATP phosphorylation of biotinylated peptide substrate). As to conditions: 10 μM ATP, 1 μM substrate, 30 minutes at room temperature; read-out: GSK-3β IC50. How it is done:
Methods—Biochemical hGSK-3Beta Assay
Compounds were tested for their ability to inhibit human Glycogen Synthase Kinase-3 beta (hGSK-3β) to phosphorylate biotin-[…](pS)EDEEE. Compounds were incubated with 0.5 μCi 33P-ATP, 10 μM ATP, 0.0125U hGSK-3β (Upstate cell signaling solutions) and 1 μM substrate (biotin-[…](pS)EDEEE) in 50 mM HEPES, 10 mM MgCl2, […], 1 mM DTT, 0.0075% Triton, 2% DMSO (total volume 50 μL) for 30 minutes at room temperature. The incubation was stopped by addition of an equal volume of 100 mM EDTA, 4M NaCl. 80 μL of this mixture was added to streptavidin-coated Flashplates (PerkinElmer). Following a wash step, 33P incorporation was quantified on a MicroBeta microplate liquid scintillation counter (PerkinElmer). IC50s were determined by fitting a sigmoidal dose-response curve to the counts obtained at the different concentrations in GraphPad Prism.

T1 sequence (P49841 whole entry): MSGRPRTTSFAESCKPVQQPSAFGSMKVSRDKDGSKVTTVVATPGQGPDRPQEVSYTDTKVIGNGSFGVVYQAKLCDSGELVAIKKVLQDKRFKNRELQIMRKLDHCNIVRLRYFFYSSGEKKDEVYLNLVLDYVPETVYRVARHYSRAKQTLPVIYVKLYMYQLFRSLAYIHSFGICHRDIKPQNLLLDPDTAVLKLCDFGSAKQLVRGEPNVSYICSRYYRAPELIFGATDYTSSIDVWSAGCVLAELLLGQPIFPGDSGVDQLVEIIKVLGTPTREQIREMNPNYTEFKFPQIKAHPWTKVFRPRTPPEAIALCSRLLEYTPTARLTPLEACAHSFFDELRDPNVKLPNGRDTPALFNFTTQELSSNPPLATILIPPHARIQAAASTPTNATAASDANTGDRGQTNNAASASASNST

Take `CC(C)(C)OC(=O)N1C[C@@H]2C[C@H]1CN2c1ccc2nccc(NC(=O)Nc3cnccn3)c2c1` [Example 11, (1S,4S)-Tert-butyl 5-(4-(3-pyrazin-2-ylureido)quinolin-6-yl)-2,5-diazabicyclo[2.2.1]heptane-2-carboxylate]: the IC50 fell in the range of 100 to 10000 nM. The figure for `COc1ccc2c(NC(=O)Nc3cccc(N4CC5COCC5C4)n3)ccnc2c1` (stereo not shown) [Example 9, 1-(6-(Dihydro-1H-furo[3,4-c]pyrrol-5(3H,6H,6aH)-yl)pyridin-2-yl)-3-(7-methoxyquinolin-4-yl)urea] is below 100 nM; for `O=C(Nc1cnccn1)Nc1ccnc2cc(N3C[C@@H]4C[C@H]3CN4)ccc12` [Example 7, 1-(7-((1S,4S)-2,5-Diazabicyclo[2.2.1]heptan-2-yl)quinolin-4-yl)-3-(pyrazin-2-yl)urea] it is 100 to 10000 nM; for `COc1ccc2c(NC(=O)Nc3cccc(N4C[C@@H]5C[C@H]4CO5)n3)ccnc2c1` [Example 10, 1-(6-((1S,4S)-2-Oxa-5-azabicyclo[2.2.1]heptan-5-yl)pyridin-2-yl)-3-(7-methoxyquinolin-4-yl)urea] it is below 100 nM.

Consider `COc1ccc2c(NC(=O)Nc3cncc(N4C[C@H]5CN(C(=O)OC(C)(C)C)C[C@H]5C4)n3)ccnc2c1` [Example 3, (3aR,6aS)-tert-butyl 5-(6-(3-(7-methoxyquinolin-4-yl)ureido)pyrazin-2-yl)-hexahydropyrrolo[3,4-c]pyrrole-2(1H)-carboxylate], for which the IC50 was in the range of 100 to 10000 nM. Take `CC(C)(C)OC(=O)N1C[C@@H]2CN(c3ccc4c(NC(=O)Nc5cnccn5)ccnc4c3)C[C@@H]2C1` [Example 1, (3aR,6aS)-Tert-butyl 5-(4-(3-pyrazin-2-ylureido)quinolin-7-yl)-hexahydropyrrolo[3,4-c]pyrrole-2(1H)-carboxylate]: the concentration for half-maximal inhibition (IC50) lay in the range of 100 to 10000 nM. The figure for `O=C(Nc1cnccn1)Nc1ccnc2cc(N3CC4CCNC4C3)ccc12` (stereo not shown) [Example 12, 1-(7-(Hexahydropyrrolo[3,4-b]pyrrol-5(1H)-yl)quinolin-4-yl)-3-(pyrazin-2-yl)urea] is 100 to 10000 nM.
